From paper PMC12195707, “Evaluation of Antitumoral Activity in a 3D Cell Model of a Src Inhibitor Prodrug for Glioblastoma Treatment” (Pharmaceutics, 2025)
“And” between values parts separate entries of the source, which are not always exact repeats. Equal values may be shown once.

Tests used:
[1] = PAMPA assay, gastrointestinal (GI) membrane; assay type: in vitro ADME; conditions: four hours; for Papp at 4 h: pH 7.4, room temperature, read-out: Apparent permeability Papp; for Membrane retention MR: room temperature
Protocol: After being first dissolved in DMSO, the compounds were diluted 1:1 v/v using phosphate buffer (PBS 10 mM, pH 7.4). […] The gastrointestinal (GI) and blood–brain barrier (BBB) phospholipidic bilayers were mimicked by covering each well of the filter plate with either a 10%w/v CHCl3/dodecane brain polar lipid solution or a 1%w/v L-α-phosphatidylcholine solution (PC) in dodecane. After placing a DMSO/PBS 1:1v/v combination solution in the acceptor plate, the sandwich was gently shaken and incubated at room temperature for four hours. Samples were collected from the upper and bottom plates at the end time point, and the LC-UV/MS method was used for analysis. As previously reported, the apparent permeability (Papp cm/s × 10^−6) was quantified.

[2] = test system: U251 3D-bioprinted structures; test: Viability assay in 3D-bioprinted U251 cell model (PrestoBlue); assay type: cell-based; conditions: Homo sapiens, U-251, 72 h, bioprinted U251 3D model
Protocol: (§1) A solution of 2% alginate and 8% gelatin (bio-ink) made up the hydrogel utilized for bioprinting. After 15 min of UV light exposure, the powders were dissolved in sterile DPBS in a magnetic stirrer set at 50 °C with laminar flow. After being made, bioink was put in sterile syringes and kept at 4 °C until it was needed. Bioink had been equilibrated at 37 °C prior to the bioprinting process. After that, 2.7 mL of bioink was added to 20 × 10^6 cells that had been resuspended in 300 µL of growth media. Lastly, a disposable cartridge containing a cell/hydrogel suspension was equilibrated in a temperature-controlled printhead for 30 min at 29 °C. The BIO-X bioprinter (Cellink, Gothenburg, Sweden) was used to print in a 12-well plate at a speed of 5 mm/s and a dispensing pressure of 50 kPa, while the temperature was adjusted to 18 °C. Before adding culture media, three-dimensional constructs were crosslinked using CaCl2 for ten minutes and BaCl2 for three minutes. After 8 days, 3D structures, after evaluating cell viability, were treated for 72 h with SI306 and SI306-PD2 at selected concentrations and in different conditions: in complete DMEM high-glucose growth medium and DMEM-high glucose growth medium without FBS (w/o). Fiji ImageJ software (version 2.16.0/1.54p, https://imagej.net/software/fiji/downloads, accessed on 20 May 2025) was used to perform measurements of 3D models’ diameters on images acquired using phase contrast microscopy. A hemocytometer was used to set a scale for normalized measures and to convert real optic distance in pixels. At least five different optical fields were acquired, and the diameter was calculated for at least 100 different cell aggregates in each experimental point.
For the treatment of 2D cultures, U87 and U251 cell lines were initially seeded at a density of 2.5 × 10^4 cells/mL in a 24 multiwell with a complete DMEM high-glucose growth medium. […] Cell viability in 2D and 3D models was assessed using the cell-permeable resazurin-based solution PrestoBlue (Thermo Fisher, Waltham, MA, USA). After incubating the cells in a 1:10 ratio with the colorimetric reagent for two hours in the dark, the spectrophotometer readings at 570 and 600 nm were utilized as a relative indicator for cell viability.
Data were imported into Excel or GraphPad Prism software (version 6.01) and elaborated as the mean ± standard deviation (SD) of at least three independent experiments. […] The p value of the log-dose vs. response was calculated with a two-tailed Mann–Whitney test for unpaired data. The statistical significance between two series of measures, including stability and PAMPA (both GI and BBB) experiments, was calculated with the parametric Student t test, considering a significant p value lower than 0.05.

U251 spheroids = test: Diameter of U251 spheroids in bioprinted scaffold; assay type: cell-based, human; conditions: 10 µM, 72 h, FBS-free DMEM
Protocol: as §1

Src = test: Western blot of Src activation (pSrc/Src) in bioprinted U251 cells; assay type: cell-based, human; conditions: bioprinted U251, 24 h, FBS-free DMEM; for Active form of Src, pSrc (Tyr416), vs. control: 1 or 10 µM, Western blot
Protocol: as §1
Cells were subjected to total protein extraction using a ready-to-use cell lysis buffer (Euroclone, Milan, Italy), supplemented by a Protease/Phosphatase Inhibitor Cocktail (Euroclone), diluted 1:100. Cell lysis was further facilitated by three cycles of sonication in an ultrasonic bath (JSP, Los Angeles, CA, USA). […]

[3] = Stability/release in human plasma; conditions: for Stability (% unmodified compound): 37 °C; for half-life: human, pH 7.4
[4] = Stability/release in fetal bovine serum (FBS); conditions: for Stability (% unmodified compound): FBS, 37 °C; for half-life: bovine, fetal bovine serum (absolute FBS), pH 7.4

Structure (SMILES) | Papp at 4 h [1] | Membrane retention MR [1] | IC50 ([2]; 10% FBS-DMEM) | IC50 ([2]; FBS-free DMEM (w/o)) | Mean diameter of U251 spheroids vs. control (U251 spheroids) | Active form of Src, pSrc (Tyr416), vs. control (Src) | Stability (% unmodified compound) ([3]; time 0 h) | Stability (% unmodified compound) ([3]; time 0.083 h) | Stability (% unmodified compound) ([3]; time 0.25 h) | Stability (% unmodified compound) ([3]; time 0.5 h) | Stability (% unmodified compound) ([3]; time 2 h) | Stability (% unmodified compound) ([3]; time 4 h) | Stability (% unmodified compound) ([3]; time 6 h) | half-life [3] | Stability (% unmodified compound) ([4]; time 0 h) | Stability (% unmodified compound) ([4]; time 0.083 h) | Stability (% unmodified compound) ([4]; time 0.25 h) | Stability (% unmodified compound) ([4]; time 0.5 h) | Stability (% unmodified compound) ([4]; time 2 h) | Stability (% unmodified compound) ([4]; time 4 h) | other results
ClC(Cn1ncc2c(Nc3cccc(Br)c3)nc(SCCN3CCOCC3)nc21)c1ccccc1 (centres unmarked) [SI306, N-(3-bromophenyl)-1-(2-chloro-2-phenylethyl)-6-((2-morpholinoethyl)thio)-1H-pyrazolo[3,4-d]pyrimidin-4-amine] | 5.93 ± 0.38 ×10⁻⁶ cm/s | 60.09 ± 3.38% | 14.3 µM | 11.7 µM | significant difference in the mean diameter of the treated U251 spheroids with respect to the control | evident reduction in the active form of Src, starting from 1 µM | 100.50 ± 2.32% | 96.64 ± 2.74% | 97.99 ± 2.48% | 98.95 ± 1.18% | 99.92 ± 0.61% | 95.72 ± 0.76% | 95.54 ± 1.74% | > 100 h | 100.24 ± 2.48% | 99.67 ± 0.21% | 98.42 ± 1.19% | 98.49 ± 2.18% | 93.95 ± 2.42 % | 90.92 ± 2.68 % | Stability (% unmodified compound) ([3]; time 1 h): 99.48 ± 1.70%; Stability (% unmodified compound) ([3]; time 24 h): 93.12% and 93.12 ± 1.70 %; Stability (% unmodified compound) ([4]; time 1 h): 97.91 ± 1.79%; Stability (% unmodified compound) ([4]; time 6 h): 90.51 ± 3.24 %; Stability (% unmodified compound) ([4]; time 24 h): 90.02% and 90.02 ± 2.28 %; half-life [4]: > 100 h
O=C(OCCOCCO)N(c1cccc(Br)c1)c1nc(SCCN2CCOCC2)nc2c1cnn2CC(Cl)c1ccccc1 (centres unmarked) [SI306-PD2, 2-(2-Hydroxyethoxy)ethyl (3-Bromophenyl)(1-(2-chloro-2-phenylethyl)-6-((2-morpholinoethyl)thio)-1H-pyrazolo[3,4-d]pyrimidin-4-yl)carbamate] | 18.4 ± 2.32 ×10⁻⁶ cm/s | 5.26 ± 2.70% | 10 µM | 5.11 µM | significant difference in the mean diameter of the treated U251 spheroids with respect to the control | evident reduction in the active form of Src, starting from 1 µM | 101.03 ± 1.58% | 90.12 ± 2.45% | 89.41 ± 2.37% | 89.57 ± 1.82% | 88.55 ± 1.18% | 71.86 ± 1.03% | 70.80 ± 3.25% | 10.9 h | 100.06 ± 1.13% | 93.64 ± 2.06% | 92.56 ± 3.74% | 89.39 ± 2.87% | 79.26 ± 0.34% | 64.90 ± 1.21% | Spheroid diameter vs. SI306-treated cells (U251 spheroids): significant reduction in spheroid diameter with respect to SI306-treated cells; pSrc/Src ratio normalized to control, prodrug vs. SI306 (Src; 10 µM, densitometric analysis): higher ability of the prodrug to inhibit the generation of phosphorylated Src than the SI306 compound; Stability (% unmodified compound) ([4]; time 6 h): 56.13 ± 2.72%; half-life [4]: 10.7 h
